The source made the active and inactive calls.
Tests used:
[1] = viability of uninfected HEp-2 cells – cell-based, HTS, cytotoxicity control for RSV inhibitor project, dose response (AID 2410); assay type: functional; settings: human respiratory syncytial virus
[2] = test system: Streptococcus sp. 'group A'; experiment: Streptococcus pyogenes SK(-)GAS viability under kanamycin – luminescence, BacTiterGlo, confirmation, counter-screen for streptokinase expression inhibitor project, dose response (AID 1900); assay type: functional, organism-based
Streptococcus [3] = experiment: Luminescence Microorganism-Based Dose Response Follow up to Identify Compounds Cytotoxic to Streptococcus. [Related pubchem assays: 1677 (Project Summary), 1915, 1914, 1902 (Retest at Dose), 1900 (Counter Screen), 1662 (Primary HTS)]; assay type: functional, organism-based
Streptokinase A = biological target: T1, Streptokinase A (Streptococcus pyogenes serotype M1, UniProt P10520); experiment: viability-normalized secreted streptokinase activity reduction – plasminogen activation absorbance, OD405, dose response (AID 1914); assay type: functional, Streptococcus pyogenes M1 GAS;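 further: secreted streptokinase activity via plasminogen activation per viability signal from cell pellet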
T1 sequence (P10520 whole entry): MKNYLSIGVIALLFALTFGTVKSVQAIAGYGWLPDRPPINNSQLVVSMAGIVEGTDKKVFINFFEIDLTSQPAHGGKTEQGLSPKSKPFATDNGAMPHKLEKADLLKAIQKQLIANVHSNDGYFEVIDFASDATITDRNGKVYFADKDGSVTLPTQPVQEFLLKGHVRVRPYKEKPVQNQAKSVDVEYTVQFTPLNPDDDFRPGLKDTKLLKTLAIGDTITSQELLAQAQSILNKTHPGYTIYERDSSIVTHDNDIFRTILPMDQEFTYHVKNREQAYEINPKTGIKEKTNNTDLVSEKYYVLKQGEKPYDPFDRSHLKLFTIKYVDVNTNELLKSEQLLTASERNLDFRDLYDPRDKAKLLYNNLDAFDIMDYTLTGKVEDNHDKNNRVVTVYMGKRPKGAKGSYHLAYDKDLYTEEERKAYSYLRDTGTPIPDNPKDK

Streptococcus [4] = experiment: GAS UMAA2166 growth inhibition – luminescence, BacTiterGlo, counter-screen for streptokinase expression inhibitor project, dose response (AID 1915); assay type: functional, organism-based; settings: read-out: EC50;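 further: potency for reduction of bacterial viability or growth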
[5] = Luminescence Cell-Based Dose Retest to Confirm Inhibitors of Cancer Stem Cells. [Related pubchem assays (depositor defined):AID2717, AID2721]; assay type: functional; settings: Homo sapiens
INS1 = experiment: INS-1E survival protection against cytokine death – cell-based, luminescence, retest, dose response (AID 449756); assay type: functional; settings: Rattus norvegicus;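 further: cell death triggered by IL-1 beta plus TNF-alpha plus IFN-gamma mixture; protective hits raise ATP signal compared with cytokine alone wells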
[6] = reduction of Shn3 3'UTR-driven luciferase in osteoblasts – cell-based, Clone20 osteoblasts, firefly luciferase, cherry-picked, dose response (AID 624132); assay type: functional;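 further: firefly luciferase luminescence from reporter carrying the Shn3 3'UTR in osteoblasts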
[7] = non-specific 3'UTR reporter inhibition in Clone20-Shn3RL – cell-based, Renilla luciferase, cherry-picked, counter-screen for Shn3 inhibitor project, dose response (AID 624133); assay type: functional
[8] = biological target: Photoreceptor-specific nuclear receptor (Homo sapiens, UniProt Q9Y5X4); assay type: functional;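 further: potency for compounds that break the NR2E3 corepressor complex and count as activators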
Sequence of Photoreceptor-specific nuclear receptor (Q9Y5X4 whole entry): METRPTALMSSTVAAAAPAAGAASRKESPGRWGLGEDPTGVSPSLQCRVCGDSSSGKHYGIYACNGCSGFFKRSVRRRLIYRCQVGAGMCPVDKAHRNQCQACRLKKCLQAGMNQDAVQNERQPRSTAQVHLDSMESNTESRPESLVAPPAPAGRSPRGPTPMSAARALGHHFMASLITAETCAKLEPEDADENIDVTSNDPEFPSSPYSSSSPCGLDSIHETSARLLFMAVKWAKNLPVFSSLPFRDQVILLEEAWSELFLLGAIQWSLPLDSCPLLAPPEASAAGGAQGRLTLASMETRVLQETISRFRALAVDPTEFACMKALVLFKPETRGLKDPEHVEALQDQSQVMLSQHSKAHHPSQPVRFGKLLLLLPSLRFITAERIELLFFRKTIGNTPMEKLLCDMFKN

[9] = biological target: Peroxisome proliferator-activated receptor gamma/Nuclear receptor corepressor 2 (Homo sapiens, UniProt P37231+Q9Y618); assay type: functional
Sequence of Peroxisome proliferator-activated receptor gamma/Nuclear receptor corepressor 2 (P37231 whole entry): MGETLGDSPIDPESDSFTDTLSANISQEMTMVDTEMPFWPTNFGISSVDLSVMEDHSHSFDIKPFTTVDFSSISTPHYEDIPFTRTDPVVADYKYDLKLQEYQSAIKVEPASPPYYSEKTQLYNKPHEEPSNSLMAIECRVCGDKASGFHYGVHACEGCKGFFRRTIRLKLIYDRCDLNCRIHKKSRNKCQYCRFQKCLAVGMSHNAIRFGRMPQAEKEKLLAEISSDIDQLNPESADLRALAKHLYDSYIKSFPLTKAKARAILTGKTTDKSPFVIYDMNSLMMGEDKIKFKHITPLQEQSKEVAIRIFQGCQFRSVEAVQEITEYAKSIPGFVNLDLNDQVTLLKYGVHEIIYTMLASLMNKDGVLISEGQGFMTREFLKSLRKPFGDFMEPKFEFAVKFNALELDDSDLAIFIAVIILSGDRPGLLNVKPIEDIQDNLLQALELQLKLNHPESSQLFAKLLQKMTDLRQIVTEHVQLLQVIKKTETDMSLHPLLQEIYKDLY
Sequence of Peroxisome proliferator-activated receptor gamma/Nuclear receptor corepressor 2 (Q9Y618 whole entry): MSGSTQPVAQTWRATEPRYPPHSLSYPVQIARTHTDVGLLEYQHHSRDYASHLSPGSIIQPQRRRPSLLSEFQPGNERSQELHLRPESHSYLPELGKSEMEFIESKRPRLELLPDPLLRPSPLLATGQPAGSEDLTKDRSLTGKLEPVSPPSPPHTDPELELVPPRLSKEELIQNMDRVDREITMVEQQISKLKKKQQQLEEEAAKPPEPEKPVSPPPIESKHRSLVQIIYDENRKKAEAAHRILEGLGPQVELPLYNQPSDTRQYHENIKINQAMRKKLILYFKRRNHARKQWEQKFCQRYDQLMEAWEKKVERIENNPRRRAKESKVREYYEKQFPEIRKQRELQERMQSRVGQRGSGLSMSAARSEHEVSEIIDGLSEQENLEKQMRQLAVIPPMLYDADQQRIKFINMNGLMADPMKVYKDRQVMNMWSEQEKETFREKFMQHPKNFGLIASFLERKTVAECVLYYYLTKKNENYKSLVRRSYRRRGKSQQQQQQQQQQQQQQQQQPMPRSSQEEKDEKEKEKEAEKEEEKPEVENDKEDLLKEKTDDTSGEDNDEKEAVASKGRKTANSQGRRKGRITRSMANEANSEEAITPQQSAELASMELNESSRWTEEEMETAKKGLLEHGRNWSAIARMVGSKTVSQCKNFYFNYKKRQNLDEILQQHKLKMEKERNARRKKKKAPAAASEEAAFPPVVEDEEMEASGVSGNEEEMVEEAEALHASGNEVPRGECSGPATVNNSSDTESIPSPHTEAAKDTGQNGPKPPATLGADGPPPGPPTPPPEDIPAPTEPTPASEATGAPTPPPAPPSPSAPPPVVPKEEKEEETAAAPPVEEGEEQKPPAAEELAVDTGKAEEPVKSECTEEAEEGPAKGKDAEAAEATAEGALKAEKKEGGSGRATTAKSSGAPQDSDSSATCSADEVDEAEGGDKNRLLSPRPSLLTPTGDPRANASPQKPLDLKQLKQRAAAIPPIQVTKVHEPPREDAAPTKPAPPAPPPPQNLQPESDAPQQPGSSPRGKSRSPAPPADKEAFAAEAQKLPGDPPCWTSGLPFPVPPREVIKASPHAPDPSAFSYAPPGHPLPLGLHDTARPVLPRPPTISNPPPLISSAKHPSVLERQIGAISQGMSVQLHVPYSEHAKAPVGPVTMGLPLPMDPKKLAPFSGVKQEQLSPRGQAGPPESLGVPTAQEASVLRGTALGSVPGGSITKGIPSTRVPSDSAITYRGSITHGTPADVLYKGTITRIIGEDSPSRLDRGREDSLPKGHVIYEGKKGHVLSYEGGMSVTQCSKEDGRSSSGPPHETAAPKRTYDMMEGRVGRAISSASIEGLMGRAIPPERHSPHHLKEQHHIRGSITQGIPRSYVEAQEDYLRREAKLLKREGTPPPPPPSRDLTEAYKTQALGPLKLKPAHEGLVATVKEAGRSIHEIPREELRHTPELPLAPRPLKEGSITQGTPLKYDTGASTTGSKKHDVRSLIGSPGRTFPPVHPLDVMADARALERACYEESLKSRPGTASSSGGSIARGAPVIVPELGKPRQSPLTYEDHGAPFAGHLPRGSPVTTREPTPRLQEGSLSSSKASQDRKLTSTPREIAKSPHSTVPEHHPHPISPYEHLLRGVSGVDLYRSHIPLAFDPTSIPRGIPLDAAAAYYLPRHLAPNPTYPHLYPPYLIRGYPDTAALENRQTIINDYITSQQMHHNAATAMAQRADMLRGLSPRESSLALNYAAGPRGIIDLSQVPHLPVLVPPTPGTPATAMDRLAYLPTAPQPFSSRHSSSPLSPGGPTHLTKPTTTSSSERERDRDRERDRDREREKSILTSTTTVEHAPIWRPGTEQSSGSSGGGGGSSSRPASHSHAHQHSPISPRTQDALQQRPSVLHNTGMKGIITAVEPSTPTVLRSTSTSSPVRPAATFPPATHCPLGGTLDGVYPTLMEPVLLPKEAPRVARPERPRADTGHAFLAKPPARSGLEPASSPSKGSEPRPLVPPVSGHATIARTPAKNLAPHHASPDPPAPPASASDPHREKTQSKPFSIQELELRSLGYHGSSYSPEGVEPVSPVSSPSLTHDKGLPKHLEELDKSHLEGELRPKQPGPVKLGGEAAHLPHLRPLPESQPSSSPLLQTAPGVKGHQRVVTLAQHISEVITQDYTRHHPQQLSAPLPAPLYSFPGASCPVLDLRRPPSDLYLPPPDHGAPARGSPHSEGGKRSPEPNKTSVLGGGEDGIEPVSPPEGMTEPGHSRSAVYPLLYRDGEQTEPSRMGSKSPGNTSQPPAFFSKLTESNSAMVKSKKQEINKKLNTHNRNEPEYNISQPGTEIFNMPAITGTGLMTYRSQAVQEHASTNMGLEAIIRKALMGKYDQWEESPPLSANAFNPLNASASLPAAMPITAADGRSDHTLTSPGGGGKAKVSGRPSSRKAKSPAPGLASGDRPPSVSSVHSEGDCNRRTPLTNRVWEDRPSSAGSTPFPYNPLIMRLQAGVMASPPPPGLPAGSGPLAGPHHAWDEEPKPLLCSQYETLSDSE

[10] = biological target: T2, Neuropeptides B/W receptor type 1 (Homo sapiens, UniProt P48145); experiment: Fluorescence-based dose response cell-based high throughput screening assay to identify antagonists of the G-protein coupled receptor 7 (GPR7). [Related pubchem assays: 1952 (Screening assay (GPR7 antagonists).), 1880 (Summary AID.)]; assay type: functional
T2 sequence (P48145 whole entry): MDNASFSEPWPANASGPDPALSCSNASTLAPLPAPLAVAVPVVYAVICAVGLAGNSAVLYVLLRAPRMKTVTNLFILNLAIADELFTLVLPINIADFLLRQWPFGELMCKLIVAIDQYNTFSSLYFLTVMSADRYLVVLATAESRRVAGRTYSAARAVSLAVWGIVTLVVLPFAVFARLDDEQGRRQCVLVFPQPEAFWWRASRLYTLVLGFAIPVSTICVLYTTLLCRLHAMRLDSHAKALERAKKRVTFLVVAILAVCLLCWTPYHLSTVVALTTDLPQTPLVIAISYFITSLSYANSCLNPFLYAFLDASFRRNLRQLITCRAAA

[11] = biological target: Melanin-concentrating hormone receptor 1 (Homo sapiens, UniProt Q99705); experiment: Fluorescence-based counterscreen for antagonists of the G-protein coupled receptor 7 (GPR7): cell-based high throughput dose response assay to identify antagonists of the melanin-concentrating hormone receptor 1 (MCHR1).; assay type: functional
Sequence of Melanin-concentrating hormone receptor 1 (Q99705 whole entry): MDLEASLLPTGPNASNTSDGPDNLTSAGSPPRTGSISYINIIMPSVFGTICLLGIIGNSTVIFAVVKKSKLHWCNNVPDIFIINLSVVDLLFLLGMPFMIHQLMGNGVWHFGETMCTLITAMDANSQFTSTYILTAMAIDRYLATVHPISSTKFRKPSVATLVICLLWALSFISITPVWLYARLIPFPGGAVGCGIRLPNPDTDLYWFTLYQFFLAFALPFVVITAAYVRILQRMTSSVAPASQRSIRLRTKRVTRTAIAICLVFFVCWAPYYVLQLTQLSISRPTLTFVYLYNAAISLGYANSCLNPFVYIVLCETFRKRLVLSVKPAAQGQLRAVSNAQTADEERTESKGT

SMILES: COC(=O)C1=C(C)N(Cc2ccco2)C(=O)N[C@H]1c1ccccc1
- CC50 [1]: > 50 µM (active)
- IC50 (cells): 21.8 µM (active)

SMILES: COC(=O)c1ccccc1NC(=O)c1nc(S(=O)(=O)Cc2ccccc2)ncc1Cl
- EC50 [2]: > 50 µM (not active)
- EC50 (Streptococcus [3]): > 56 µM (not active)
- EC50 (Streptokinase A): 3.08 µM (active)
- EC50 (Streptococcus [4]): > 150 µM (not active)
- AC50 [5]: 1.84 µM (active)
- AC50 (INS1): 6.88 µM (active)
- AC50 [6]: 0.428 µM (active)
- AC50 [7]: 8.03 µM (active)

SMILES: CCOc1cccc(C2C(C(=O)c3ccc(C)o3)=C(O)C(=O)N2CCCn2ccnc2)c1 (stereo unspecified)
- IC50 [8]: > 39.8 µM (not active)
- IC50 [9]: 16.8 µM (not active)

SMILES: O=P(Cc1cc(Br)cc(Br)c1OCCO)(c1ccccc1)c1ccccc1
- IC50 [10]: > 43.8 µM (not active)
- IC50 [11]: 9.96 µM (active)

SMILES: CCCCOc1ccc(-c2c(C#N)c(S)nc(C)c2C(=O)Nc2ccccc2)cc1
- IC50 [8]: 0.33 µM (active)
- IC50 [9]: 0.778 µM (active)

From ChEMBL document CHEMBL1201862, “PubChem BioAssay data set” (2004)
